Reference: the NIST ThermoML archive (doi:10.1016/j.jct.2004.12.008)
Numbers after ± are expanded uncertainties.

Assay: xn = mol fraction of the nth substance listed
Conditions: 101 kPa, Liquid

## O=[N+]([O-])c1ccccc1 [nitrobenzene] + c1ccccc1
293.15 K, x2 = 0
  mass density: 1202.95 ± 2.3 kg/m3
293.15 K, x2 = 0.0532
  mass density: 1187.99 ± 2.2 kg/m3
293.15 K, x2 = 0.1189
  mass density: 1169.24 ± 2 kg/m3
293.15 K, x2 = 0.1842
  mass density: 1150.3 ± 1.9 kg/m3
293.15 K, x2 = 0.2479
  mass density: 1131.5 ± 1.7 kg/m3
293.15 K, x2 = 0.3012
  mass density: 1115.52 ± 1.6 kg/m3
293.15 K, x2 = 0.3581
  mass density: 1098.17 ± 1.4 kg/m3
293.15 K, x2 = 0.425
  mass density: 1077.37 ± 1.3 kg/m3
293.15 K, x2 = 0.4891
  mass density: 1057.04 ± 1.1 kg/m3
293.15 K, x2 = 0.5311
  mass density: 1043.49 ± 1 kg/m3
293.15 K, x2 = 0.6023
  mass density: 1020.07 ± 0.83 kg/m3
293.15 K, x2 = 0.6521
  mass density: 1003.34 ± 0.7 kg/m3
293.15 K, x2 = 0.7198
  mass density: 980.14 ± 0.83 kg/m3
293.15 K, x2 = 0.7811
  mass density: 958.64 ± 1 kg/m3
293.15 K, x2 = 0.8534
  mass density: 932.66 ± 1.2 kg/m3
293.15 K, x2 = 0.9212
  mass density: 907.66 ± 1.4 kg/m3
303.15 K, x2 = 0
  mass density: 1193.56 ± 2.2 kg/m3
303.15 K, x2 = 0.0612
  mass density: 1176.18 ± 2.1 kg/m3
303.15 K, x2 = 0.1384
  mass density: 1153.92 ± 1.9 kg/m3
303.15 K, x2 = 0.1732
  mass density: 1143.76 ± 1.8 kg/m3
303.15 K, x2 = 0.2543
  mass density: 1119.7 ± 1.6 kg/m3
303.15 K, x2 = 0.3132
  mass density: 1101.89 ± 1.5 kg/m3
303.15 K, x2 = 0.3821
  mass density: 1080.7 ± 1.3 kg/m3
303.15 K, x2 = 0.4422
  mass density: 1061.84 ± 1.2 kg/m3
303.15 K, x2 = 0.4922
  mass density: 1045.9 ± 1 kg/m3
303.15 K, x2 = 0.5543
  mass density: 1025.75 ± 0.88 kg/m3
303.15 K, x2 = 0.6123
  mass density: 1006.56 ± 0.72 kg/m3
303.15 K, x2 = 0.6831
  mass density: 982.62 ± 0.81 kg/m3
303.15 K, x2 = 0.7534
  mass density: 958.28 ± 1 kg/m3
303.15 K, x2 = 0.8113
  mass density: 937.78 ± 1.2 kg/m3
303.15 K, x2 = 0.8713
  mass density: 916.1 ± 1.3 kg/m3
303.15 K, x2 = 0.9378
  mass density: 891.52 ± 1.5 kg/m3
313.15 K, x2 = 0
  mass density: 1183.37 ± 2.1 kg/m3
313.15 K, x2 = 0.0522
  mass density: 1168.46 ± 2 kg/m3
313.15 K, x2 = 0.1234
  mass density: 1147.88 ± 1.9 kg/m3
313.15 K, x2 = 0.1923
  mass density: 1127.63 ± 1.7 kg/m3
313.15 K, x2 = 0.2612
  mass density: 1107.04 ± 1.5 kg/m3
313.15 K, x2 = 0.3122
  mass density: 1091.57 ± 1.4 kg/m3
313.15 K, x2 = 0.3723
  mass density: 1073.06 ± 1.2 kg/m3
313.15 K, x2 = 0.4234
  mass density: 1057.08 ± 1.1 kg/m3
313.15 K, x2 = 0.4865
  mass density: 1037.03 ± 0.97 kg/m3
313.15 K, x2 = 0.5382
  mass density: 1020.3 ± 0.84 kg/m3
313.15 K, x2 = 0.6032
  mass density: 998.9 ± 0.68 kg/m3
313.15 K, x2 = 0.6632
  mass density: 978.75 ± 0.84 kg/m3
313.15 K, x2 = 0.7219
  mass density: 958.66 ± 1 kg/m3
313.15 K, x2 = 0.7932
  mass density: 933.72 ± 1.2 kg/m3
313.15 K, x2 = 0.8428
  mass density: 916.03 ± 1.3 kg/m3
313.15 K, x2 = 0.9247
  mass density: 886.12 ± 1.6 kg/m3
323.15 K, x2 = 0
  mass density: 1172.38 ± 2 kg/m3
323.15 K, x2 = 0.0479
  mass density: 1158.64 ± 1.9 kg/m3
323.15 K, x2 = 0.1387
  mass density: 1132.24 ± 1.7 kg/m3
323.15 K, x2 = 0.1842
  mass density: 1118.82 ± 1.6 kg/m3
323.15 K, x2 = 0.2487
  mass density: 1099.55 ± 1.5 kg/m3
323.15 K, x2 = 0.3286
  mass density: 1075.26 ± 1.3 kg/m3
323.15 K, x2 = 0.392
  mass density: 1055.64 ± 1.1 kg/m3
323.15 K, x2 = 0.435
  mass density: 1042.13 ± 1 kg/m3
323.15 K, x2 = 0.5023
  mass density: 1020.68 ± 0.84 kg/m3
323.15 K, x2 = 0.543
  mass density: 1007.49 ± 0.73 kg/m3
323.15 K, x2 = 0.592
  mass density: 991.42 ± 0.74 kg/m3
323.15 K, x2 = 0.6633
  mass density: 967.59 ± 0.93 kg/m3
323.15 K, x2 = 0.7328
  mass density: 943.85 ± 1.1 kg/m3
323.15 K, x2 = 0.7931
  mass density: 922.82 ± 1.3 kg/m3
323.15 K, x2 = 0.8538
  mass density: 901.23 ± 1.5 kg/m3
323.15 K, x2 = 0.9423
  mass density: 868.96 ± 1.7 kg/m3
333.15 K, x2 = 0
  mass density: 1160.59 ± 1.9 kg/m3
333.15 K, x2 = 0.0501
  mass density: 1146.17 ± 1.8 kg/m3
333.15 K, x2 = 0.1421
  mass density: 1119.35 ± 1.6 kg/m3
333.15 K, x2 = 0.1924
  mass density: 1104.47 ± 1.5 kg/m3
333.15 K, x2 = 0.2517
  mass density: 1086.72 ± 1.4 kg/m3
333.15 K, x2 = 0.3184
  mass density: 1066.47 ± 1.2 kg/m3
333.15 K, x2 = 0.3618
  mass density: 1053.11 ± 1.1 kg/m3
333.15 K, x2 = 0.4248
  mass density: 1033.47 ± 0.94 kg/m3
333.15 K, x2 = 0.4921
  mass density: 1012.12 ± 0.77 kg/m3
333.15 K, x2 = 0.5524
  mass density: 992.65 ± 0.73 kg/m3
333.15 K, x2 = 0.6013
  mass density: 976.62 ± 0.86 kg/m3
333.15 K, x2 = 0.664
  mass density: 955.73 ± 1 kg/m3
333.15 K, x2 = 0.723
  mass density: 935.71 ± 1.2 kg/m3
333.15 K, x2 = 0.7813
  mass density: 915.56 ± 1.3 kg/m3
333.15 K, x2 = 0.8342
  mass density: 896.97 ± 1.5 kg/m3
333.15 K, x2 = 0.9234
  mass density: 864.89 ± 1.8 kg/m3
343.15 K, x2 = 0
  mass density: 1148 ± 1.9 kg/m3
343.15 K, x2 = 0.0632
  mass density: 1129.76 ± 1.7 kg/m3
343.15 K, x2 = 0.1567
  mass density: 1102.42 ± 1.5 kg/m3
343.15 K, x2 = 0.219
  mass density: 1083.91 ± 1.3 kg/m3
343.15 K, x2 = 0.2678
  mass density: 1069.26 ± 1.2 kg/m3
343.15 K, x2 = 0.3347
  mass density: 1048.9 ± 1.1 kg/m3
343.15 K, x2 = 0.3972
  mass density: 1029.6 ± 0.91 kg/m3
343.15 K, x2 = 0.4581
  mass density: 1010.51 ± 0.76 kg/m3
343.15 K, x2 = 0.5124
  mass density: 993.23 ± 0.73 kg/m3
343.15 K, x2 = 0.5639
  mass density: 976.61 ± 0.86 kg/m3
343.15 K, x2 = 0.6384
  mass density: 952.15 ± 1.1 kg/m3
343.15 K, x2 = 0.7038
  mass density: 930.24 ± 1.2 kg/m3
343.15 K, x2 = 0.7598
  mass density: 911.15 ± 1.4 kg/m3
343.15 K, x2 = 0.8234
  mass density: 889.07 ± 1.6 kg/m3
343.15 K, x2 = 0.8824
  mass density: 868.19 ± 1.7 kg/m3
343.15 K, x2 = 0.9423
  mass density: 846.61 ± 1.9 kg/m3
